Test results taken from ChEMBL document CHEMBL2384962, “Design, synthesis and evaluation of some new 4-aminopyridine derivatives in learning and memory” (Bioorg Med Chem Lett, 2013).
Active and inactive are the calls of the source. The calls are words filed in the database; no cut-off is given here.

Key:
Cholinesterase [1] = target: T1, Cholinesterase (Homo sapiens, UniProt P06276); assay: Competitive inhibition of human serum BChE using butyrylthiolcholine iodide as substrate by Lineweaver-Burk plot analysis
Acetylcholinesterase [2] = target: T2, Acetylcholinesterase (Electrophorus electricus, UniProt O42275); assay: Inhibition of electric eel AChE using […] as substrate incubated for 20 mins prior to substrate addition by Ellman method
Rattus norvegicus [3] = assay: Acute toxicity in Charles Foster albino rat assessed as feeding behaviour up to 100 mg/kg, po after 48 hrs; format: organism-based; design: dose 100 mg/kg, route oral; conditions: in vivo
Cholinesterase [4] = target: T1, Cholinesterase; assay: Inhibition of human serum BChE using butyrylthiolcholine iodide as substrate incubated for 20 mins prior to substrate addition by Ellman's method
Rattus norvegicus [5] = assay: Acute toxicity in Charles Foster albino rat assessed as diarrhoea up to 100 mg/kg, po after 48 hrs; format: organism-based; design: dose 100 mg/kg, route oral; conditions: in vivo
Rattus norvegicus [6] = assay: Acute toxicity in Charles Foster albino rat assessed as sleep up to 100 mg/kg, po after 48 hrs; format: organism-based; design: dose 100 mg/kg, route oral; conditions: in vivo
Rattus norvegicus [7] = assay: Acute toxicity in Charles Foster albino rat assessed as blood pressure up to 100 mg/kg, po after 48 hrs; format: organism-based; design: dose 100 mg/kg, route oral; conditions: in vivo
Rattus norvegicus [8] = assay: Acute toxicity in Charles Foster albino rat assessed as lacrimation up to 100 mg/kg, po after 48 hrs; format: organism-based; design: dose 100 mg/kg, route oral; conditions: in vivo
Rattus norvegicus [9] = assay: In vivo inhibition of AChE-mediated substrate hydrolysis in Charles Foster albino rat hippocampus at 5 to 10 mg/kg, po administered for 8 days measured 1 hr post last dose; format: functional, organism-based; design: dose 5 to 10 mg/kg, route oral
Rattus norvegicus [10] = assay: In vivo inhibition of AChE-mediated substrate hydrolysis in Charles Foster albino rat hypothalamus at 5 to 10 mg/kg, po administered for 8 days measured 1 hr post last dose; format: functional, organism-based; design: dose 5 to 10 mg/kg, route oral
Rattus norvegicus [11] = assay: In vivo inhibition of AChE-mediated substrate hydrolysis in Charles Foster albino rat prefrontal cortex at 5 to 10 mg/kg, po administered for 8 days measured 1 hr post last dose; format: functional, organism-based
Rattus norvegicus [12] = assay: Antiamnesic activity in Charles Foster albino rat assessed as reduction in scopolamine-induced increase in transfer latency at 10 mg/kg, po administered for 7 days measured 1 hr post last dose by elevated plus maze task (reference value: 67.67 +/- 0.88 s); format: functional
Rattus norvegicus [13] = assay: Antiamnesic activity in Charles Foster albino rat assessed as reduction in scopolamine-induced increase in transfer latency at 5 mg/kg, po administered for 8 days measured 1 hr post last dose by elevated plus maze task (reference value: 62.50 +/- 0.76 s); format: functional
Rattus norvegicus [14] = assay: Acute toxicity in Charles Foster albino rat assessed as mortality up to 100 mg/kg, po after 48 hrs; format: organism-based; design: dose 100 mg/kg, route oral; conditions: in vivo
Rattus norvegicus [15] = assay: Antiamnesic activity in po dosed Charles Foster albino rat assessed as reduction in scopolamine-induced increase in transfer latency after 7 to 8 days by elevated plus maze task; format: functional, organism-based
Rattus norvegicus [16] = assay: Acute toxicity in Charles Foster albino rat assessed as heart rate up to 100 mg/kg, po after 48 hrs; format: organism-based; design: dose 100 mg/kg, route oral; conditions: in vivo
Rattus norvegicus [17] = assay: Antiamnesic activity in Charles Foster albino rat assessed as reduction in scopolamine-induced increase in transfer latency at 5 mg/kg, po administered for 7 days measured 1 hr post last dose by elevated plus maze task (reference value: 67.67 +/- 0.88 s); format: functional
Acetylcholinesterase [18] = target: T2, Acetylcholinesterase; assay: Non-competitive inhibition of electric eel AChE using […] as substrate by Lineweaver-Burk plot analysis
Rattus norvegicus [19] = assay: Acute toxicity in Charles Foster albino rat assessed as pulse rate up to 100 mg/kg, po after 48 hrs; format: organism-based; design: dose 100 mg/kg, route oral; conditions: in vivo
Rattus norvegicus [20] = assay: Acute toxicity in Charles Foster albino rat assessed as tremors up to 100 mg/kg, po after 48 hrs; format: organism-based; design: dose 100 mg/kg, route oral; conditions: in vivo
[21] = Selectivity ratio of IC50 for human serum BChE to IC50 for electric eel AChE
Rattus norvegicus [22] = assay: Acute toxicity in Charles Foster albino rat assessed as salivation up to 100 mg/kg, po after 48 hrs; format: organism-based; design: dose 100 mg/kg, route oral; conditions: in vivo
Rattus norvegicus [23] = assay: Antiamnesic activity in Charles Foster albino rat assessed as reduction in scopolamine-induced increase in transfer latency at 10 mg/kg, po administered for 8 days measured 1 hr post last dose by elevated plus maze task (reference value: 62.50 +/- 0.76 s); format: functional
Rattus norvegicus [24] = assay: Acute toxicity in Charles Foster albino rat assessed as convulsions up to 100 mg/kg, po after 48 hrs; format: organism-based; design: dose 100 mg/kg, route oral; conditions: in vivo

T1 sequence (P06276 whole entry): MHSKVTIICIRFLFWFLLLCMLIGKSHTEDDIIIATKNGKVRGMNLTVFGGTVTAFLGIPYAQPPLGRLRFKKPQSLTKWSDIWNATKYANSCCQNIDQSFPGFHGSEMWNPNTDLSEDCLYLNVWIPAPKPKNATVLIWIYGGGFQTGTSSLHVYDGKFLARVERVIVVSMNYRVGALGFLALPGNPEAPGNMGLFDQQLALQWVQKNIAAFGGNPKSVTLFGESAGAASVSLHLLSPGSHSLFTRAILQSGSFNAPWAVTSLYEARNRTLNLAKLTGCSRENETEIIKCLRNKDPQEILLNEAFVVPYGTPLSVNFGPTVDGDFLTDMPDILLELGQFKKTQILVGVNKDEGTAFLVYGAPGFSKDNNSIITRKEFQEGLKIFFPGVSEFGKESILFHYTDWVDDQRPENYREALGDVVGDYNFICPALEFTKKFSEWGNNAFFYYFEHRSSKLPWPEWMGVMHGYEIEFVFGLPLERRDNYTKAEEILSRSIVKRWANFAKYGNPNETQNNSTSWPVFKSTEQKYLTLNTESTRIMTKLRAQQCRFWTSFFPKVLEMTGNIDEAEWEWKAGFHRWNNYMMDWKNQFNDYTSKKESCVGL
T2 sequence (O42275 whole entry): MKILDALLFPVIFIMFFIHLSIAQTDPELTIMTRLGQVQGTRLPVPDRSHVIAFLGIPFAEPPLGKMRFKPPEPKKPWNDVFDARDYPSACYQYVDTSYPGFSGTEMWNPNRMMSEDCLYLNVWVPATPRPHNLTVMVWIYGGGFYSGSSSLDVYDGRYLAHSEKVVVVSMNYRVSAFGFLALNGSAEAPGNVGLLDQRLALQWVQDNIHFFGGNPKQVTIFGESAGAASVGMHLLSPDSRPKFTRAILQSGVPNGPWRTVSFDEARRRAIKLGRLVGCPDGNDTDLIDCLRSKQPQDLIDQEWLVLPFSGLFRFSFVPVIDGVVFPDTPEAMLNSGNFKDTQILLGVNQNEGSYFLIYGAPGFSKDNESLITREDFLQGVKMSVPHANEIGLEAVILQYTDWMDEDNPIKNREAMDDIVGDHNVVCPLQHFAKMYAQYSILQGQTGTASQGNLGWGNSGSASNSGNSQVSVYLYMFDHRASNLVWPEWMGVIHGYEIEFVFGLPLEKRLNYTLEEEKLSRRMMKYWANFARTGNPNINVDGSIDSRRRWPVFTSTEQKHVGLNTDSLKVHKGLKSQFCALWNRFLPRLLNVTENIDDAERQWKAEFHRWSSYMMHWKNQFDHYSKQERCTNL

O=C1C=CC(=O)N1c1ccncc1
Ki (Cholinesterase [1]): 15.6 µM | IC50 (Acetylcholinesterase [2]): 0.03 µM | Activity (Rattus norvegicus [3]): Non-toxic | IC50 (Cholinesterase [4]): 11 µM | Activity (Rattus norvegicus [5]): Non-toxic | Activity (Rattus norvegicus [6]): Non-toxic | Activity (Rattus norvegicus [7]): Non-toxic | Activity (Rattus norvegicus [8]): Non-toxic | inhibition (Rattus norvegicus [9]): Active | inhibition (Rattus norvegicus [10]): Active | inhibition (Rattus norvegicus [11]): Active | Time (Rattus norvegicus [12]): 61.33 s | Time (Rattus norvegicus [13]): 56.33 s | Activity (Rattus norvegicus [14]): Non-toxic | Activity (Rattus norvegicus [15]): Dose-dependent effect | Activity (Rattus norvegicus [16]): Non-toxic | Time (Rattus norvegicus [17]): 64.67 s | Ki (Acetylcholinesterase [18]): 0.042 µM | Activity (Rattus norvegicus [19]): Non-toxic | Activity (Rattus norvegicus [20]): Non-toxic | Ratio IC50 [21]: 367 | Activity (Rattus norvegicus [22]): Non-toxic | Time (Rattus norvegicus [23]): 53.83 s | Activity (Rattus norvegicus [24]): Non-toxic

O=C(O)CCC(=O)Nc1ccncc1
IC50 (Acetylcholinesterase [2]): 40.3 µM | Activity (Rattus norvegicus [3]): Non-toxic | IC50 (Cholinesterase [4]): 56.5 µM | Activity (Rattus norvegicus [5]): Non-toxic | Activity (Rattus norvegicus [6]): Non-toxic | Activity (Rattus norvegicus [7]): Non-toxic | Activity (Rattus norvegicus [8]): Non-toxic | inhibition (Rattus norvegicus [9]): Active | inhibition (Rattus norvegicus [10]): Active | inhibition (Rattus norvegicus [11]): Active | Time (Rattus norvegicus [12]): 74.83 s | Time (Rattus norvegicus [13]): 71.67 s | Activity (Rattus norvegicus [14]): Non-toxic | Activity (Rattus norvegicus [15]): Dose-dependent effect | Activity (Rattus norvegicus [16]): Non-toxic | Time (Rattus norvegicus [17]): 77.67 s | Activity (Rattus norvegicus [19]): Non-toxic | Activity (Rattus norvegicus [20]): Non-toxic | Ratio IC50 [21]: 1.39 | Activity (Rattus norvegicus [22]): Non-toxic | Time (Rattus norvegicus [23]): 70 s | Activity (Rattus norvegicus [24]): Non-toxic

O=C(O)/C=C\C(=O)Nc1ccncc1
IC50 (Acetylcholinesterase [2]): 48.7 µM | Activity (Rattus norvegicus [3]): Non-toxic | IC50 (Cholinesterase [4]): 657 µM | Activity (Rattus norvegicus [5]): Non-toxic | Activity (Rattus norvegicus [6]): Non-toxic | Activity (Rattus norvegicus [7]): Non-toxic | Activity (Rattus norvegicus [8]): Non-toxic | inhibition (Rattus norvegicus [9]): Active | inhibition (Rattus norvegicus [10]): Active | inhibition (Rattus norvegicus [11]): Active | Time (Rattus norvegicus [12]): 77.67 s | Time (Rattus norvegicus [13]): 75.33 s | Activity (Rattus norvegicus [14]): Non-toxic | Activity (Rattus norvegicus [15]): Dose-dependent effect | Activity (Rattus norvegicus [16]): Non-toxic | Time (Rattus norvegicus [17]): 80.5 s | Activity (Rattus norvegicus [19]): Non-toxic | Activity (Rattus norvegicus [20]): Non-toxic | Ratio IC50 [21]: 13.5 | Activity (Rattus norvegicus [22]): Non-toxic | Time (Rattus norvegicus [23]): 72.5 s | Activity (Rattus norvegicus [24]): Non-toxic

O=C1CCC(=O)N1c1ccncc1
IC50 (Acetylcholinesterase [2]): 0.49 µM | Activity (Rattus norvegicus [3]): Non-toxic | IC50 (Cholinesterase [4]): 3.82 µM | Activity (Rattus norvegicus [5]): Non-toxic | Activity (Rattus norvegicus [6]): Non-toxic | Activity (Rattus norvegicus [7]): Non-toxic | Activity (Rattus norvegicus [8]): Non-toxic | inhibition (Rattus norvegicus [9]): Active | inhibition (Rattus norvegicus [10]): Active | inhibition (Rattus norvegicus [11]): Active | Time (Rattus norvegicus [12]): 65.5 s | Time (Rattus norvegicus [13]): 60.67 s | Activity (Rattus norvegicus [14]): Non-toxic | Activity (Rattus norvegicus [15]): Dose-dependent effect | Activity (Rattus norvegicus [16]): Non-toxic | Time (Rattus norvegicus [17]): 66.83 s | Activity (Rattus norvegicus [19]): Non-toxic | Activity (Rattus norvegicus [20]): Non-toxic | Ratio IC50 [21]: 7.79 | Activity (Rattus norvegicus [22]): Non-toxic | Time (Rattus norvegicus [23]): 58.33 s | Activity (Rattus norvegicus [24]): Non-toxic
